Reference: the NIST ThermoML archive (doi:10.1016/j.jct.2005.03.020)

Assays:
[1] = xn = mol fraction of the nth substance listed; details: 298.15 K, 101.33 kPa, Liquid
[2] = excess molar enthalpy (molar enthalpy of mixing); xn = mol fraction of the nth substance listed; details: 298.15 K, 101.33 kPa, Liquid

ClCCCCCl [1,4-dichlorobutane] + CCOC(C)=O
Details | excess molar enthalpy [kcal/mol] | mass density [kg/m3]
[1], x2 = 0.0693 | – | 1118.08
[1], x2 = 0.1314 | – | 1104.46
[1], x2 = 0.1955 | – | 1090.4
[1], x2 = 0.2579 | – | 1076.44
[1], x2 = 0.3205 | – | 1062.24
[1], x2 = 0.3812 | – | 1048.26
[1], x2 = 0.442 | – | 1034.12
[1], x2 = 0.5019 | – | 1019.95
[1], x2 = 0.5602 | – | 1006.01
[1], x2 = 0.6172 | – | 992.21
[1], x2 = 0.6757 | – | 977.84
[1], x2 = 0.7842 | – | 950.68
[1], x2 = 0.8386 | – | 936.74
[1], x2 = 0.8929 | – | 922.7
[1], x2 = 0.9453 | – | 908.9
[2], x2 = 0.0692 | -0.00201 | –
[2], x2 = 0.1414 | -0.00473 | –
[2], x2 = 0.2133 | -0.00848 | –
[2], x2 = 0.2818 | -0.0131 | –
[2], x2 = 0.347 | -0.0181 | –
[2], x2 = 0.4035 | -0.0231 | –
[2], x2 = 0.4514 | -0.0274 | –
[2], x2 = 0.4919 | -0.0309 | –
[2], x2 = 0.5264 | -0.0339 | –
[2], x2 = 0.5571 | -0.0363 | –
[2], x2 = 0.5836 | -0.0386 | –
[2], x2 = 0.6072 | -0.0403 | –
[2], x2 = 0.6278 | -0.0414 | –
[2], x2 = 0.6525 | -0.0423 | –
[2], x2 = 0.7106 | -0.0388 | –
[2], x2 = 0.7719 | -0.0344 | –
[2], x2 = 0.8337 | -0.0275 | –
[2], x2 = 0.8915 | -0.0193 | –
[2], x2 = 0.9475 | -0.00997 | –

ClCCCCCl [1,4-dichlorobutane] + CCOC=O
[1]
Details | mass density [kg/m3]
x2 = 0.0818 | 1119.67
x2 = 0.1583 | 1106.59
x2 = 0.2305 | 1093.6
x2 = 0.2967 | 1081.3
x2 = 0.3635 | 1068.33
x2 = 0.4271 | 1055.54
x2 = 0.491 | 1042.19
x2 = 0.6081 | 1016.39
x2 = 0.6615 | 1003.97
x2 = 0.7146 | 991.26
x2 = 0.7671 | 978.22
x2 = 0.816 | 965.61
x2 = 0.8633 | 952.97
x2 = 0.91 | 940.24
x2 = 0.9551 | 927.47

ClCCCCCCl [1,5-dichloropentane] + CCOC(=O)CC
[1]
Details | mass density [kg/m3]
x2 = 0.0734 | 1081.12
x2 = 0.129 | 1070.38
x2 = 0.1956 | 1057.38
x2 = 0.2575 | 1045.16
x2 = 0.3202 | 1032.63
x2 = 0.4361 | 1008.96
x2 = 0.5001 | 995.63
x2 = 0.5582 | 983.34
x2 = 0.6155 | 971.03
x2 = 0.6735 | 958.42
x2 = 0.7283 | 946.34
x2 = 0.785 | 933.66
x2 = 0.8394 | 921.33
x2 = 0.8926 | 909.15
x2 = 0.9451 | 896.94

ClCCCCCCl [1,5-dichloropentane] + CCOC(C)=O
[1]
Details | mass density [kg/m3]
x2 = 0.078 | 1082.84
x2 = 0.1498 | 1071.08
x2 = 0.2187 | 1059.41
x2 = 0.2869 | 1047.48
x2 = 0.3508 | 1035.92
x2 = 0.4146 | 1024.01
x2 = 0.5355 | 1000.44
x2 = 0.5943 | 988.46
x2 = 0.6527 | 976.18
x2 = 0.7039 | 965.12
x2 = 0.7557 | 953.57
x2 = 0.8066 | 941.94
x2 = 0.8572 | 930.03
x2 = 0.9059 | 918.17
x2 = 0.9527 | 906.46

ClCCCCCCl [1,5-dichloropentane] + CCOC=O
[1]
Details | mass density [kg/m3]
x2 = 0.0925 | 1084.33
x2 = 0.173 | 1074.06
x2 = 0.2529 | 1063.2
x2 = 0.3276 | 1052.35
x2 = 0.3957 | 1041.79
x2 = 0.4618 | 1031.02
x2 = 0.5249 | 1020.19
x2 = 0.5835 | 1009.55
x2 = 0.6395 | 998.87
x2 = 0.6917 | 988.42
x2 = 0.7415 | 977.92
x2 = 0.7896 | 967.31
x2 = 0.836 | 956.62
x2 = 0.8791 | 946.24
x2 = 0.9211 | 935.6
x2 = 0.9595 | 925.4

ClCCCCCCCl [1,6-dichlorohexane] + CCOC(=O)CC
[1]
Details | mass density [kg/m3]
x2 = 0.0733 | 1053.16
x2 = 0.144 | 1042.66
x2 = 0.2117 | 1032.32
x2 = 0.2775 | 1021.98
x2 = 0.3418 | 1011.56
x2 = 0.4104 | 1000.12
x2 = 0.5264 | 979
x2 = 0.5884 | 968.62
x2 = 0.7491 | 937.72
x2 = 0.8052 | 926.3
x2 = 0.8547 | 915.96
x2 = 0.905 | 905.21
x2 = 0.9513 | 894.99

ClCCCCCCCl [1,6-dichlorohexane] + CCOC=O
[1]
Details | mass density [kg/m3]
x2 = 0.1021 | 1054.55
x2 = 0.1921 | 1045.86
x2 = 0.2781 | 1036.7
x2 = 0.357 | 1027.68
x2 = 0.4266 | 1019.06
x2 = 0.4923 | 1010.37
x2 = 0.5555 | 1001.35
x2 = 0.6677 | 983.71
x2 = 0.7169 | 975.18
x2 = 0.7649 | 966.4
x2 = 0.8091 | 957.78
x2 = 0.8515 | 949.08
x2 = 0.8915 | 940.41
x2 = 0.929 | 931.82
x2 = 0.9647 | 923.23

CCOC=O [ethyl methanoate] + ClCCCl
[1]
Details | mass density [kg/m3]
x1 = 0.0604 | 1224.56
x1 = 0.1183 | 1204.73
x1 = 0.175 | 1185.45
x1 = 0.2911 | 1146.17
x1 = 0.3483 | 1126.98
x1 = 0.4068 | 1107.45
x1 = 0.4649 | 1088.21
x1 = 0.5246 | 1068.52
x1 = 0.5831 | 1049.26
x1 = 0.6432 | 1029.61
x1 = 0.7012 | 1010.71
x1 = 0.758 | 992.23
x1 = 0.817 | 973.15
x1 = 0.8778 | 953.5
x1 = 0.9362 | 934.65

CCOC(=O)CC [ethyl propanoate] + ClCCCl
[1]
Details | mass density [kg/m3]
x1 = 0.0458 | 1221.49
x1 = 0.0867 | 1201.01
x1 = 0.131 | 1179.33
x1 = 0.1761 | 1158.4
x1 = 0.225 | 1136.63
x1 = 0.2733 | 1116.14
x1 = 0.3272 | 1094.1
x1 = 0.3811 | 1073.16
x1 = 0.4371 | 1052.35
x1 = 0.4963 | 1031.27
x1 = 0.5583 | 1010.27
x1 = 0.6235 | 989.23
x1 = 0.69 | 968.72
x1 = 0.7598 | 948.13
x1 = 0.835 | 927.04
x1 = 0.9131 | 906.11
